The source of these data is patent publication US10428104B2, “Substituted nucleoside derivatives useful as anticancer agents” (Pfizer Inc., priority 2015, dated 2019).

Assay [1] has as its system A549 lung adenocarcinoma cells. The assay is described as follows: A549 proliferation assay (Cell Titer Glo, 7 days). It is filed as cell-based. Conditions: Homo sapiens, 168 h, 7 days with compound, cell viability by Cell Titer Glo (ATP). How it is done:
A549 lung adenocarcinoma cells (American Type CuIture Collection) were maintained in DMEM growth media (Life Technologies) supplemented with 10% v/v heat inactivated fetal bovine serum (Sigma) and cultured at 37° C., 5% CO2. Exponentially growing A549 cells were plated in 96-well black tissue culture treated plates (Corning) at a density of 2500 cells/ml in a volume of 100 μl culture media and allowed to adhere overnight at 37° C., 5% CO2. The following day, compound plates were prepared by making nine-point 3.3-fold dilutions in DMSO with a top concentration of 10 mM. Compounds were further diluted in culture media and 11 μl was added to the cells (final top assay concentration was 10 μM and DMSO was […]). Cells were incubated with compound at 37° C., 5% CO2 for 7 days with media and compound replacement on day 4. Cell viability was assayed on Day 7 by adding 100 μl Cell Titer Glo (Promega) reagent to the plate to measure the amount of ATP present in the cells. Luminescence was read using the Envision 2104 Multilabel Reader (Perkin Elmer).
Results for the A549 proliferation assay of examples are summarized in Table 2, shown as IC50 values in μM.
A general note: Cellular ATP, detected with luciferase, serves as a proxy for viable cell number.

Assay [2] has as its target PRMT5/MEP50 protein complex (Homo sapiens (Human), UniProt O14744). The assay is described as follows: PRMT5 biochemical assay (3H-SAM methylation of H4(1-21) peptide, filter plate scintillation counting). The note with it: PRMT5 enzyme inhibition; 10 nM PRMT5/MEP50 complex, 200 nM H4(1-21) peptide, 1 uM SAM, 25 minute incubation at room temperature. The method, boiled down: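 Flag-PRMT5/MEP50 was co-expressed in Sf21 cells and Flag-affinity purified. Reactions used 10 nM complex, 200 nM H4(1-21) peptide and 1 uM 3H-SAM (final) in 50 mM Tris pH 8.5, 50 mM NaCl, 5 mM MgCl2, 1 mM EDTA and 1 mM TCEP, run 25 min at room temperature. Reactions were TCA-stopped, filter-captured and scintillation-counted; IC50 came from a 4-parameter fit.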

Chain of PRMT5/MEP50 protein complex (O14744 other isoform, or with tags, fused parts or gaps): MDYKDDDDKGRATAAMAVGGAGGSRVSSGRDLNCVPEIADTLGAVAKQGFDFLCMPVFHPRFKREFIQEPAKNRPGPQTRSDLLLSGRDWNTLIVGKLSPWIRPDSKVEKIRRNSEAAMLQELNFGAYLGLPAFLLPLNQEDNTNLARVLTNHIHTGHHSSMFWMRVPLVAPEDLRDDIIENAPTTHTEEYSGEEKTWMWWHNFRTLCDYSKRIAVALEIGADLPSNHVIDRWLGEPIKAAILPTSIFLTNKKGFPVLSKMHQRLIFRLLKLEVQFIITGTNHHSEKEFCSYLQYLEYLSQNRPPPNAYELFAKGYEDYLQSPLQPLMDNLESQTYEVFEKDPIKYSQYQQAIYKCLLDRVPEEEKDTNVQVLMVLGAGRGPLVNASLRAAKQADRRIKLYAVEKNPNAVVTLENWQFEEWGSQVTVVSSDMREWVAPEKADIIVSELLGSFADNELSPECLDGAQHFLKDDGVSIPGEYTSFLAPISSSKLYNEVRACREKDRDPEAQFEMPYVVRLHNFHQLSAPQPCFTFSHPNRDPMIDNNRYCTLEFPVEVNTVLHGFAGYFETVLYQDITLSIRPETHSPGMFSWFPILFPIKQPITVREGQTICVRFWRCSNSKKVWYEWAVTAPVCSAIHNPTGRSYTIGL
Chain of PRMT5/MEP50 protein complex (Q9BQA1 whole entry partner): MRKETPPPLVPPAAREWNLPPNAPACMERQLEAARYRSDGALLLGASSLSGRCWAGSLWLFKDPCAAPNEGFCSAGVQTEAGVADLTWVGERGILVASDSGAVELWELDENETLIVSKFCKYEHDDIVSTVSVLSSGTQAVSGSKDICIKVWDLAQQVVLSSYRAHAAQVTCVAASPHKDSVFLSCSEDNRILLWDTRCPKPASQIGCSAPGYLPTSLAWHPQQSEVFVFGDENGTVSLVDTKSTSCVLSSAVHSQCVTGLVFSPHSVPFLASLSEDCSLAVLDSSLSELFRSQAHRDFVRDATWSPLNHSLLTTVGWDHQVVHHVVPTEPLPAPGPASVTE

What is called IC50 is the point on the concentration scale where inhibition reaches its midpoint. For the compound `CC[C@@H](O)[C@H]1O[C@@H](n2ccc3c(C)ncnc32)[C@H](O)[C@@H]1O` [Example 40, (2R,3S,4R,5R)-2-((R)-1-hydroxypropyl)-5-(4-methyl-7H-pyrrolo[2,3-d]pyrimidin-7-yl)tetrahydrofuran-3,4-diol], the IC50 in assay [1] was determined as 2.7 µM; in assay [2], 0.114 µM.
As to `Cc1ncnc2c1ccn2[C@@H]1O[C@H]([C@@H](C)O)[C@@H](O)[C@H]1O` [Example 44, (2R,3S,4R,5R)-2-((R)-1-hydroxyethyl)-5-(4-methyl-7H-pyrrolo[2,3-d]pyrimidin-7-yl)tetrahydrofuran-3,4-diol], the IC50 was 3.4 µM in assay [1] and 0.052 µM in assay [2].
The matching figures for `Nc1ncnc2c1c(F)cn2[C@@H]1O[C@H]([C@H](O)c2ccc(F)c(F)c2)[C@@H](O)[C@H]1O` [Example 60, (2R,3R,4S,5R)-2-(4-amino-5-fluoro-7H-pyrrolo[2,3-d]pyrimidin-7-yl)-5-((R)-(3,4-difluorophenyl)(hydroxy)methyl)tetrahydrofuran-3,4-diol]: 0.01 µM and 0.002 µM.
With `Nc1ncnc2c1c(F)cn2[C@@H]1O[C@H]([C@H](O)c2ccc(F)cc2)[C@@H](O)[C@H]1O` [Example 61, (2R,3R,4S,5R)-2-(4-amino-5-fluoro-7H-pyrrolo[2,3-d]pyrimidin-7-yl)-5-((R)-(4-fluorophenyl)(hydroxy)methyl)tetrahydrofuran-3,4-diol], the concentration for half-maximal inhibition (IC50) in assay [1] worked out at 0.014 µM; in assay [2] it was 0.003 µM.
The matching figures for `CC[C@@H](O)[C@H]1O[C@@H](n2ccc3c(C)nc(N)nc32)[C@H](O)[C@@H]1O` [Example 62, (2R,3R,4S,5R)-2-(2-amino-4-methyl-7H-pyrrolo[2,3-d]pyrimidin-7-yl)-5-((R)-1-hydroxypropyl)tetrahydrofuran-3,4-diol]: 2.3 µM and 0.052 µM.
The matching figures for `CCC[C@@H](O)[C@H]1O[C@@H](n2ccc3c(C)nc(N)nc32)[C@H](O)[C@@H]1O` [Example 63, (2R,3R,4S,5R)-2-(2-amino-4-methyl-7H-pyrrolo[2,3-d]pyrimidin-7-yl)-5-((R)-1-hydroxybutyl)tetrahydrofuran-3,4-diol]: 3.4 µM and 0.038 µM.
The like results for `Cc1nc(N)nc2c1ccn2[C@@H]1O[C@H]([C@H](O)c2ccc(F)cc2)[C@@H](O)[C@H]1O` [Example 64, (2R,3R,4S,5R)-2-(2-amino-4-methyl-7H-pyrrolo[2,3-d]pyrimidin-7-yl)-5-((R)-(4-fluorophenyl)(hydroxy)methyl)tetrahydrofuran-3,4-diol] were, in that order, 0.018 µM and 0.005 µM.
For the compound `Nc1ncnc2c1c(F)cn2[C@@H]1O[C@H]([C@H](O)c2ccc(F)cn2)[C@@H](O)[C@H]1O` [Example 83, (2R,3R,4S,5R)-2-(4-amino-5-fluoro-7H-pyrrolo[2,3-d]pyrimidin-7-yl)-5-((R)-(5-fluoropyridin-2-yl)(hydroxy)methyl)tetrahydrofuran-3,4-diol], the IC50 in assay [1] stood at 0.323 µM; in assay [2] it was 0.013 µM.
The matching figures for `Nc1ncnc2c1ccn2[C@@H]1O[C@H]([C@H](O)c2ccc(F)c(F)c2)[C@@H](O)[C@H]1O` [Example 85, (2R,3R,4S,5R)-2-(4-amino-7H-pyrrolo[2,3-d]pyrimidin-7-yl)-5-((R)-(3,4-difluorophenyl)(hydroxy)methyl)tetrahydrofuran-3,4-diol]: 0.006 µM and 0.001 µM.
The like results for `Nc1ncnc2c1ccn2[C@@H]1O[C@H]([C@H](O)c2ccc(F)cc2)[C@@H](O)[C@H]1O` [Example 86, (2R,3R,4S,5R)-2-(4-amino-7H-pyrrolo[2,3-d]pyrimidin-7-yl)-5-((R)-(4-fluorophenyl)(hydroxy)methyl)tetrahydrofuran-3,4-diol] were, in that order, 0.009 µM and 0.002 µM.
The like results for `Nc1ncnc2c1ccn2[C@@H]1O[C@H]([C@H](O)c2ccc(Cl)cc2)[C@@H](O)[C@H]1O` [Example 87, (2R,3R,4S,5R)-2-(4-amino-7H-pyrrolo[2,3-d]pyrimidin-7-yl)-5-((R)-(4-chlorophenyl)(hydroxy)methyl)tetrahydrofuran-3,4-diol] were, in that order, 0.005 µM and 0.001 µM.
As to `Nc1ncnc2c1ccn2[C@@H]1O[C@H]([C@H](O)c2ccc(Cl)c(F)c2)[C@@H](O)[C@H]1O` [Example 88, (2R,3R,4S,5R)-2-(4-amino-7H-pyrrolo[2,3-d]pyrimidin-7-yl)-5-((R)-(4-chloro-3-fluorophenyl)(hydroxy)methyl)tetrahydrofuran-3,4-diol], the 50% inhibitory concentration (IC50) in assay [1] came out at 0.003 µM; in assay [2], 0.001 µM.
The like results for `Cc1ncnc2c1ccn2[C@@H]1O[C@H]([C@H](F)c2ccc(F)c(F)c2)[C@@H](O)[C@H]1O` [Example 92, (2S,3S,4R,5R)-2-((R)-(3,4-difluorophenyl)fluoromethyl)-5-(4-methyl-7H-pyrrolo[2,3-d]pyrimidin-7-yl)tetrahydrofuran-3,4-diol] were, in that order, 0.257 µM and 0.014 µM.
For the compound `Cc1ncnc2c1c(F)cn2[C@@H]1O[C@H]([C@H](O)c2ccc(F)cc2)[C@@H](O)[C@H]1O` [Example 98, (2R,3R,4S,5R)-2-(5-fluoro-4-methyl-7H-pyrrolo[2,3-d]pyrimidin-7-yl)-5-((R)-(4-fluorophenyl)(hydroxy)methyl)tetrahydrofuran-3,4-diol], the IC50 was found to be 0.25 µM in assay [1] and 0.018 µM in assay [2].
As for `Cc1nc(C)c2ccn([C@@H]3O[C@H]([C@H](O)c4ccc(F)cc4)[C@@H](O)[C@H]3O)c2n1` [Example 99, (2R,3R,4S,5R)-2-(2,4-dimethyl-7H-pyrrolo[2,3-d]pyrimidin-7-yl)-5-((R)-(4-fluorophenyl)(hydroxy)methyl)tetrahydrofuran-3,4-diol], the results for the IC50 in assay [1] and in assay [2] were 0.364 µM and 0.021 µM, respectively.
The like results for `Cc1ncnc2c1ccn2[C@@H]1O[C@H]([C@H](O)c2cccc3c2CNCC3)[C@@H](O)[C@H]1O` [Example 112, (2R,3S,4R,5R)-2-((R)-hydroxy(1,2,3,4-tetrahydroisoquinolin-8-yl)methyl)-5-(4-methyl-7H-pyrrolo[2,3-d]pyrimidin-7-yl)tetrahydrofuran-3,4-diol] were, in that order, 0.35 µM and 0.001 µM.
The matching figures for `O[C@@H]1[C@H](O)[C@@H]([C@H](O)c2ccc(Cl)c(F)c2)O[C@H]1n1ccc2cncnc21` [Example 115, (2R,3S,4R,5R)-2-((R)-(4-chloro-3-fluorophenyl)(hydroxy)methyl)-5-(7H-pyrrolo[2,3-d]pyrimidin-7-yl)tetrahydrofuran-3,4-diol]: 0.046 µM and 0.002 µM.
The like results for `N[C@H](c1ccc(Cl)c(F)c1)[C@H]1O[C@@H](n2ccc3cncnc32)[C@H](O)[C@@H]1O` [Example 116, (2R,3S,4R,5R)-2-((R)-amino(4-chloro-3-fluorophenyl)methyl)-5-(7H-pyrrolo[2,3-d]pyrimidin-7-yl)tetrahydrofuran-3,4-diol] were, in that order, 1.64 µM and 0.005 µM.
With `O[C@@H]1[C@H](O)[C@@H]([C@H](O)c2ccc(F)c(F)c2)O[C@H]1n1ccc2cncnc21` [Example 117, (2R,3S,4R,5R)-2-((R)-(3,4-difluorophenyl)(hydroxy)methyl)-5-(7H-pyrrolo[2,3-d]pyrimidin-7-yl)tetrahydrofuran-3,4-diol], the IC50 in assay [1] stood at 0.092 µM; in assay [2], 0.005 µM.
The matching figures for `Nc1ncnc2c1c(I)cn2[C@@H]1O[C@H]([C@H](O)c2ccc(F)c(F)c2)[C@@H](O)[C@H]1O` [Example 119, (2R,3R,4S,5R)-2-(4-amino-5-iodo-7H-pyrrolo[2,3-d]pyrimidin-7-yl)-5-((R)-(3,4-difluorophenyl)(hydroxy)methyl)tetrahydrofuran-3,4-diol]: 0.322 µM and 0.007 µM.
